Laboratory results as given in patent US20230035892A1, “METHODS AND COMPOSITIONS FOR TREATING CANCER” (Flagship Pioneering Innovations V, Inc., priority 2019, published 2023).

Tested on: pancreatic cancer cell lines
Assay: Long-term colony formation assay (10-14 days)
Assay type: cell-based
Details: colony formation 10-14 days
From the text: Different concentrations of the compound of Formula III-26 were then used to evaluate its effect on pancreatic cancer cell line proliferation in a long-term colony formation assay (10-14 days).

Cn1c(CNc2cccc(C(=O)NCc3ccccc3C(F)(F)F)c2)nnc1-c1ccncc1 [Compound of Formula III-26]
Mean intensity (BXPC3, 0.1 μM): 396.24 | Normalized to DMSO (BXPC3, 0.1 μM): 0.99 | Mean intensity (BXPC3, 0.3 μM): 445.015 | Normalized to DMSO (BXPC3, 0.3 μM): 1.11 | Mean intensity (BXPC3, 1 μM): 418.98 | Normalized to DMSO (BXPC3, 1 μM): 1.04 | Mean intensity (BXPC3, 3 μM): 189.24 | Normalized to DMSO (BXPC3, 3 μM): 0.47 | Mean intensity (BXPC3, 10 μM): 82.2 | Normalized to DMSO (BXPC3, 10 μM): 0.20 | Mean intensity (BXPC3, 30 μM): 76.19 | Normalized to DMSO (BXPC3, 30 μM): 0.19 | Mean intensity (Miapaca, 0.1 μM): 447.5 | Normalized to DMSO (Miapaca, 0.1 μM): 1.09 | Mean intensity (Miapaca, 0.3 μM): 461.465 | Normalized to DMSO (Miapaca, 0.3 μM): 1.13 | Mean intensity (Miapaca, 1 μM): 398.675 | Normalized to DMSO (Miapaca, 1 μM): 0.97 | Mean intensity (Miapaca, 3 μM): 386.35 | Normalized to DMSO (Miapaca, 3 μM): 0.94 | Mean intensity (Miapaca, 10 μM): 80.16 | Normalized to DMSO (Miapaca, 10 μM): 0.20 | Mean intensity (Miapaca, 30 μM): 75.66 | Normalized to DMSO (Miapaca, 30 μM): 0.18 | Mean intensity (PAXF1657, 0.1 μM): 617.13 | Normalized to DMSO (PAXF1657, 0.1 μM): 0.97 | Mean intensity (PAXF1657, 0.3 μM): 660.9 | Normalized to DMSO (PAXF1657, 0.3 μM): 1.04 | Mean intensity (PAXF1657, 1 μM): 574.375 | Normalized to DMSO (PAXF1657, 1 μM): 0.90 | Mean intensity (PAXF1657, 3 μM): 410.77 | Normalized to DMSO (PAXF1657, 3 μM): 0.64 | Mean intensity (PAXF1657, 10 μM): 326.68 | Normalized to DMSO (PAXF1657, 10 μM): 0.51 | Mean intensity (PAXF1657, 30 μM): 271.275 | Normalized to DMSO (PAXF1657, 30 μM): 0.43 | Mean intensity (PAXF1997, 0.1 μM): 461.65 | Normalized to DMSO (PAXF1997, 0.1 μM): 1.07 | Mean intensity (PAXF1997, 0.3 μM): 500.34 | Normalized to DMSO (PAXF1997, 0.3 μM): 1.16 | Mean intensity (PAXF1997, 1 μM): 455.7 | Normalized to DMSO (PAXF1997, 1 μM): 1.06 | Mean intensity (PAXF1997, 3 μM): 379.285 | Normalized to DMSO (PAXF1997, 3 μM): 0.88 | Mean intensity (PAXF1997, 10 μM): 296.635 | Normalized to DMSO (PAXF1997, 10 μM): 0.69 | Mean intensity (PAXF1997, 30 μM): 288.38 | Normalized to DMSO (PAXF1997, 30 μM): 0.67 | Mean intensity (Panc1, 0.1 μM): 477.265 | Normalized to DMSO (Panc1, 0.1 μM): 1.16 | Mean intensity (Panc1, 0.3 μM): 478.195 | Normalized to DMSO (Panc1, 0.3 μM): 1.17 | Mean intensity (Panc1, 1 μM): 509.365 | Normalized to DMSO (Panc1, 1 μM): 1.24 | Mean intensity (Panc1, 3 μM): 504.735 | Normalized to DMSO (Panc1, 3 μM): 1.23 | Mean intensity (Panc1, 10 μM): 254.47 | Normalized to DMSO (Panc1, 10 μM): 0.62
